In ChEMBL document CHEMBL1201862, “PubChem BioAssay data set” (2004):
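Interpolation was linear, between the two tested concentrations surrounding the appropriate level; five concentrations were tested over 48 hours in 96-well plates. Abbreviation: GI50, concentration required for 50% inhibition of growth.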 Active and inactive are the calls of the source. Rule as the data show it: active = GI50 up to about 1.1 µM and inactive = higher.

What was measured:
Assay in all cases: growth of human tumour cells (NCI), 48 h
A498 = test system: A498
A549 = test system: A549
CAKI-1 = test system: CAKI-1
DU-145 = test system: DU-145
HCT-15 = test system: HCT-15
HOP-62 = test system: HOP-62
HOP-92 = test system: HOP-92
IGROV-1 = test system: IGROV-1
LOX IMVI = test system: LOX IMVI
MCF7 = test system: MCF7
MDA-MB-435 = test system: MDA-MB-435
NCI-H522 = test system: NCI-H522
NCI/ADR-RES = test system: NCI/ADR-RES
OVCAR-5 = test system: OVCAR-5
RPMI-8226 = test system: RPMI-8226
RXF 393 = test system: RXF 393
SF-268 = test system: SF-268
SF-539 = test system: SF-539
UACC-257 = test system: UACC-257
UACC-62 = test system: UACC-62

| SMILES | GI50 (A498) | GI50 (A549) | GI50 (CAKI-1) | GI50 (DU-145) | GI50 (HCT-15) [µM] | GI50 (HOP-62) | GI50 (HOP-92) | GI50 (IGROV-1) | GI50 (LOX IMVI) | GI50 (MCF7) | GI50 (MDA-MB-435) | GI50 (NCI-H522) | GI50 (NCI/ADR-RES) | GI50 (OVCAR-5) | GI50 (RPMI-8226) | GI50 (RXF 393) | GI50 (SF-268) | GI50 (SF-539) | GI50 (UACC-257) | GI50 (UACC-62) |
| --- | --- | --- | --- | --- | --- | --- | --- | --- | --- | --- | --- | --- | --- | --- | --- | --- | --- | --- | --- | --- |
| O=C(O)c1c(-c2nccc3ccccc23)[nH]c(-c2ccccc2)c1S(=O)(=O)O | > 100 µM (inactive) | > 100 µM (inactive) | > 100 µM (inactive) | > 100 µM (inactive) | > 100 | > 100 µM (inactive) | > 100 µM (inactive) | > 100 µM (inactive) | > 100 µM (inactive) | > 100 µM (inactive) | > 100 µM (inactive) | > 100 µM (inactive) | > 100 µM (inactive) | > 100 µM (inactive) | > 100 µM (inactive) | > 100 µM (inactive) | > 100 µM (inactive) | > 100 µM (inactive) | > 100 µM (inactive) | > 100 µM (inactive) |
| O=C(/C=C\c1ccc(-c2ccccc2)cc1)c1cccs1 | 8.67 µM (inactive) | > 79.6 µM (inactive) | 35.7 µM (inactive) | 5.56 µM (inactive) | 7.74 | 25.3 µM (inactive) | > 69.2 µM (inactive) | 29.4 µM (inactive) | 3.88 µM (inactive) | 3.56 µM (inactive) | 17.5 µM (inactive) | 3.87 µM (inactive) | 26.7 µM (inactive) | 45.2 µM (inactive) | 3.23 µM (inactive) | 10.9 µM (inactive) | 22.5 µM (inactive) | 7.18 µM (inactive) | > 100 µM (inactive) | 16.4 µM (inactive) |
| CC(C)C[C@H](NC(=O)[C@H](Cc1cccc2ccccc12)NC(=O)N1CCOCC1)B(O)O | < 0.01 µM (active) | < 0.0107 µM (active) | < 0.0126 µM (active) | < 0.01 µM (active) | < 0.0202 | < 0.01 µM (active) | < 0.01 µM (active) | < 0.01 µM (active) | < 0.01 µM (active) | < 0.0444 µM (active) | < 0.01 µM (active) | < 0.01 µM (active) | 0.149 µM (active) | < 0.01 µM (active) | < 0.01 µM (active) | 0.000555 µM (active) | < 0.01 µM (active) | < 0.01 µM (active) | < 0.01 µM (active) | < 0.01 µM (active) |
| CCC1(O)C(=O)OCc2c1cc1n(c2=O)Cc2cc3ccccc3nc2-1 (configuration not stated) | 0.94 µM (active) | 0.0221 µM (active) | < 0.01 µM (active) | 0.018 µM (active) | 0.239 | < 0.0149 µM (active) | 0.12 µM (active) | 0.0635 µM (active) | < 0.0152 µM (active) | 0.0405 µM (active) | 0.139 µM (active) | 0.0471 µM (active) | 0.0444 µM (active) | 0.347 µM (active) | 0.048 µM (active) | 0.073 µM (active) | < 0.0168 µM (active) | 0.0157 µM (active) | 0.417 µM (active) | 0.0128 µM (active) |
| CCCCCCN(CCCCCC)C(=S)N/N=C(\C)c1ccccn1 | 1.86 µM (inactive) | 1.52 µM (inactive) | 0.836 µM (active) | 1.28 µM (inactive) | 0.581 | 1.21 µM (inactive) | 0.906 µM (active) | 0.955 µM (active) | 0.838 µM (active) | 1.53 µM (inactive) | 0.708 µM (active) | 0.527 µM (active) | 1.37 µM (inactive) | 1.63 µM (inactive) | 0.117 µM (active) | 0.973 µM (active) | 0.345 µM (active) | 1.09 µM (active) | 1.6 µM (inactive) | 1 µM (active) |
| CCOC(=O)C1=C(C)NC(C)=C(C(=O)OCC)C1c1ccc(Cl)cc1 | 16.4 µM (inactive) | 15.4 µM (inactive) | 16.5 µM (inactive) | 17.3 µM (inactive) | 16.6 | 14.8 µM (inactive) | 10.3 µM (inactive) | 15.1 µM (inactive) | 16.8 µM (inactive) | 17.1 µM (inactive) | 14.4 µM (inactive) | 16 µM (inactive) | 17.7 µM (inactive) | 13.4 µM (inactive) | 9.48 µM (inactive) | 14.1 µM (inactive) | 17.5 µM (inactive) | 18.8 µM (inactive) | 13.4 µM (inactive) | 12.1 µM (inactive) |
| O=[N+]([O-])c1cc(Cl)cc2c1nc(NCCO)c1ccccc12 | 10.3 µM (inactive) | 2.95 µM (inactive) | 16.5 µM (inactive) | 1.69 µM (inactive) | 4.36 | 7.24 µM (inactive) | 15.6 µM (inactive) | 15.2 µM (inactive) | 17.2 µM (inactive) | 2.28 µM (inactive) | 6.17 µM (inactive) | 13.6 µM (inactive) | 23.5 µM (inactive) | 9.18 µM (inactive) | 6.25 µM (inactive) | 6.46 µM (inactive) | 23.8 µM (inactive) | 20.9 µM (inactive) | 13.8 µM (inactive) | 10.3 µM (inactive) |
| c1csc(-c2ccc(-c3cccs3)c3nsnc23)c1 | > 100 µM (inactive) | 33.9 µM (inactive) | > 59.8 µM (inactive) | 33.8 µM (inactive) | 0.261 | 35.6 µM (inactive) | 35 µM (inactive) | 0.875 µM (active) | 26.3 µM (inactive) | 0.11 µM (active) | 31.4 µM (inactive) | > 100 µM (inactive) | > 49.5 µM (inactive) |  | 12.2 µM (inactive) | > 22 µM (inactive) | 33.7 µM (inactive) | 24.4 µM (inactive) | > 65 µM (inactive) | > 100 µM (inactive) |
| O=[N+]([O-])/C(C(Cl)=C(Cl)Cl)=C(/Nc1ccccc1)Sc1ccccc1 | 20.8 µM (inactive) | 23.4 µM (inactive) | 13.5 µM (inactive) | 21.1 µM (inactive) | 19.8 | 19.5 µM (inactive) | 32.8 µM (inactive) | 19.9 µM (inactive) | 15.7 µM (inactive) | 28.5 µM (inactive) | 18.1 µM (inactive) | 16.2 µM (inactive) | 24.4 µM (inactive) |  | 32.6 µM (inactive) | 19.8 µM (inactive) | 14 µM (inactive) | 24.9 µM (inactive) | 16.6 µM (inactive) | 19.9 µM (inactive) |
| Cc1ccccc1Nc1cn(COCc2ccccc2)c(=O)[nH]c1=O | > 100 µM (inactive) | 81.3 µM (inactive) | > 100 µM (inactive) | 80.4 µM (inactive) | > 100 | > 100 µM (inactive) | > 100 µM (inactive) | 33 µM (inactive) | 59.8 µM (inactive) | > 100 µM (inactive) | 85.3 µM (inactive) | 40.2 µM (inactive) | 40.2 µM (inactive) | > 100 µM (inactive) | > 100 µM (inactive) | > 100 µM (inactive) | 70.6 µM (inactive) |  | > 100 µM (inactive) | 75.2 µM (inactive) |
| CN(C)CCOc1ccc(-c2c(Oc3ccccc3)c(=O)oc3ccccc23)cc1 | 13.4 µM (inactive) | 4.15 µM (inactive) | 22.3 µM (inactive) | 13.8 µM (inactive) | 10.3 |  | 17.2 µM (inactive) | 10.7 µM (inactive) | 13.1 µM (inactive) | 4.66 µM (inactive) | 4.89 µM (inactive) | 11.3 µM (inactive) | 11.2 µM (inactive) | 15 µM (inactive) | 14.1 µM (inactive) | 3.08 µM (inactive) | 12.8 µM (inactive) | 14.1 µM (inactive) | 6.67 µM (inactive) | 13.3 µM (inactive) |
| NC(=O)C1CCN(Cc2c(Cl)c(Cl)c(CN3CCC(C(N)=O)CC3)c(Cl)c2Cl)CC1 | 28.3 µM (inactive) | > 100 µM (inactive) | > 100 µM (inactive) | > 100 µM (inactive) | > 100 | 11.6 µM (inactive) | 67.1 µM (inactive) |  | > 100 µM (inactive) | > 100 µM (inactive) | > 100 µM (inactive) | > 100 µM (inactive) | > 100 µM (inactive) | > 100 µM (inactive) | > 100 µM (inactive) | 52.6 µM (inactive) | 44.7 µM (inactive) | 28.4 µM (inactive) | > 100 µM (inactive) | > 100 µM (inactive) |
| COC(=O)C1(Cc2ccc3c(c2)CCC3)Cc2cc3c(cc2C1)CCC3 | 35.2 µM (inactive) | 28.6 µM (inactive) |  | 71.4 µM (inactive) | 31.6 | > 100 µM (inactive) | 25.8 µM (inactive) | 80 µM (inactive) | 18.7 µM (inactive) | 22.5 µM (inactive) | 39 µM (inactive) | 22.1 µM (inactive) | 59.8 µM (inactive) | 55.6 µM (inactive) | 53 µM (inactive) | 23.9 µM (inactive) | 30.3 µM (inactive) | > 100 µM (inactive) | 19.5 µM (inactive) | 71.3 µM (inactive) |
| c1ccc2c(c1)[n-]n1c3ccc4nonc4c3n[n+]21 | > 100 µM (inactive) | > 100 µM (inactive) | > 100 µM (inactive) | > 100 µM (inactive) | > 100 | 84.5 µM (inactive) | > 100 µM (inactive) | > 100 µM (inactive) | > 100 µM (inactive) | 60.5 µM (inactive) | > 100 µM (inactive) | > 100 µM (inactive) | > 100 µM (inactive) | > 100 µM (inactive) | > 100 µM (inactive) | > 100 µM (inactive) |  | > 100 µM (inactive) | > 100 µM (inactive) | > 100 µM (inactive) |
| Cc1ccc2c(/C=C/c3ccc(N(C)C)cc3)ccnc2c1C | > 100 µM (inactive) | 49.8 µM (inactive) | 27.4 µM (inactive) | 48 µM (inactive) | 12.8 | 30.8 µM (inactive) | 15.1 µM (inactive) |  | 28.5 µM (inactive) | 15.7 µM (inactive) | 4.57 µM (inactive) | 19.1 µM (inactive) | 33.2 µM (inactive) | 64 µM (inactive) | 11.1 µM (inactive) | 18 µM (inactive) | 30.1 µM (inactive) | 32.2 µM (inactive) | 26.8 µM (inactive) | 13.4 µM (inactive) |
